According to patent publication US8791050B2, “Herbicidal compositions” (priority 1998, dated 2014):

Experiments:
Type in all cases: in vivo
[1] = tested on: Sagittaria pygmaea (SAGPY); experiment: Herbicidal effect in rice, greenhouse trial, Sagittaria pygmaea; settings: Table 5 greenhouse trial, post-emergence 1-2-leaf stage, scoring 20 days after application
Procedure: (§1) The herbicidal efficacy of the active compounds or active compound mixtures was scored visually using the treated plots in comparison to untreated control plots. The damage and development of all above-ground parts of the plants were recorded. Scoring was carried out using a percentage scale (100% effect=all plants killed; 50% effect=50% of the plants and the green parts of the plants killed; 0% effect=no noticeable effect=like control plot). The scores of in each case 4 plots were averaged.
(§2) If the observed activity values already exceed the formal sum of the values for the trials with the individual applications, they also exceed the expected value according to Colby which is calculated using the following formula and which is likewise considered to be an indication of synergism (cf. S. R. Colby; in Weeds 15 (1967) pp. 20 to 22): E=A+B−(A·B/100)
Seeds or rhizome pieces of monocotyledonous and dicotyledonous weeds are placed in sandy loam soil in pots, covered with soil and grown in a greenhouse under good growth conditions (temperature, atmospheric humidity, water supply). […] The compositions according to the invention, formulated as wettable powders or as emulsion concentrates, are sprayed, at various dosages, onto the green parts of the plant at an application rate of 600 to 800 l of water/ha (converted). After the test plants have been in the greenhouse for about 3 to 4 weeks under ideal growth conditions, the effect of the preparations is scored visually by comparison with untreated controls. The compositions according to the invention also have a good herbicidal post-emergence activity against a broad spectrum of economically important weed grasses and weeds.
(§3) Frequently, activities of the combinations according to the invention are observed which exceed the formal sum of the activities when the herbicides are applied individually.

[2] = tested on: rice; experiment: Selectivity: damage to rice, greenhouse trial; settings: scoring 20 days after application
[3] = tested on: Echinochloa colona (ECHCO); experiment: Herbicidal effect in rice, field trial, Echinochloa colona; settings: post-emergence 2-4-leaf stage
Procedure: as §1, §2
(§4) Crop plants were grown outdoors on plots under natural outdoor conditions, and seeds or rhizome pieces of typical harmful plants were laid out or the natural weed growth was utilized. Treatment with the compositions according to the invention was carried out after the harmful plants had emerged and the crop plants were, generally, at the 2- to 4-leaf stage; in some cases (as stated), application of individual active compounds or active compound combinations was carried out pre-emergence (cf. Example 1) or as a sequential treatment partly pre-emergence and/or post-emergence.
(§5) After the application, for example 2, 4, 6 and 8 weeks after the application, the effect of the preparations was scored visually by comparison with untreated controls (cf. scoring in Example 1). In the field trial as well, the compositions according to the invention have synergistic herbicidal activity against a broad spectrum of economically important weed grasses and broad-leaved weeds. […] Moreover, the effects in essential phases of the scoring period were above the expected values according to Colby (cf. scoring in Example 1), also indicating synergism. In contrast, the crop plants were, as a consequence of the treatments with the herbicidal compositions, damaged only to a small degree, if at all.

[4] = tested on: Sesbania exaltata (SEBEX); experiment: Herbicidal effect in rice, field trial, Sesbania exaltata
Procedure: as §1, §2
(§6) Crop plants were grown outdoors on plots under natural outdoor conditions, and seeds or rhizome pieces of typical harmful plants were laid out or the natural weed growth was utilized. […]
(§7) After the application, for example 2, 4, 6 and 8 weeks after the application, the effect of the preparations was scored visually by comparison with untreated controls (cf. scoring in Example 1). […]

[5] = tested on: rice; experiment: Selectivity: damage to rice, field trial
Procedure: The damage and development of all above-ground parts of the plants were recorded. […] The scores of in each case 4 plots were averaged.
Crop plants were grown outdoors on plots under natural outdoor conditions, and seeds or rhizome pieces of typical harmful plants were laid out or the natural weed growth was utilized.

[6] = tested on: Amaranthus retroflexus (AMARE); experiment: Herbicidal effect in rice, field trial, Amaranthus retroflexus
Procedure: as §1, §2, §4
as §5, with “In contrast, the crop plants were, as a consequence of the treatments with the herbicidal compositions, damaged only to a small degree, if at all.” left out

[7] = tested on: Cyperus difformis (CYPDI); experiment: Herbicidal effect in rice, field trial, Cyperus difformis; settings: Table 11 field trial, post-emergence 2-4-leaf stage, scoring 28 days after application, 45 g of AS/ha
Procedure: as §1, §2, §6, §7

[8] = tested on: Ipomoea spp (IPOSS); experiment: Herbicidal effect in rice, field trial, Ipomoea spp; settings: Table 11 field trial, post-emergence 2-4-leaf stage, scoring 28 days after application, 45 g of AS/ha
Procedure: as §1, §2, §6, §7

[9] = tested on: Eleusine indica (ELEIN); experiment: Herbicidal effect in rice, field trial, Eleusine indica; settings: Table 4 field trial, post-emergence 2-4-leaf stage, scoring 28 days after application
Procedure: as §1, §2, §4
as §5, with “In contrast, the crop plants were, as a consequence of the treatments with the herbicidal compositions, damaged only to a small degree, if at all.” left out

[10] = tested on: Echinochloa crus-galli (ECHCG); experiment: Herbicidal effect in rice, greenhouse trial, Echinochloa crus-galli; settings: Table 6 greenhouse trial, post-emergence 3-4-leaf stage, scoring 20 days after application
Procedure: as §1, §2
Seeds or rhizome pieces of monocotyledonous and dicotyledonous weeds are placed in sandy loam soil in pots, covered with soil and grown in a greenhouse under good growth conditions (temperature, atmospheric humidity, water supply). Three weeks after sowing, the test plants are treated at the three-leaf stage with the compositions according to the invention. The compositions according to the invention, formulated as wettable powders or as emulsion concentrates, are sprayed, at various dosages, onto the green parts of the plant at an application rate of 600 to 800 l of water/ha (converted). After the test plants have been in the greenhouse for about 3 to 4 weeks under ideal growth conditions, the effect of the preparations is scored visually by comparison with untreated controls. The compositions according to the invention also have a good herbicidal post-emergence activity against a broad spectrum of economically important weed grasses and weeds.
as §3

[11] = tested on: Echinochloa crus-galli (ECHCG); experiment: Herbicidal effect in rice, field trial, Echinochloa crus-galli; settings: Table 12 field trial, post-emergence 3-leaf stage, scoring 12 days after application
Procedure: as §1, §2, §4, §5

[12] = tested on: Cyperus iria (CYPIR); experiment: Herbicidal effect in rice, field trial, Cyperus iria; settings: Table 14 field trial, post-emergence 3-leaf stage, scoring 42 days after application, 250 g of AS/ha
Procedure: as §1, §2, §4
as §5, with “In contrast, the crop plants were, as a consequence of the treatments with the herbicidal compositions, damaged only to a small degree, if at all.” left out

[13] = Table 10 field trial, post-emergence 2-4-leaf stage, scoring 28 days after application, 32 g of AS/ha
[14] = Table 1 field trial, post-emergence, scoring 7 days after application, 45 g of AS/ha
[15] = Table 9 field trial, post-emergence 2-4-leaf stage, scoring 28 days after application, 50 g of AS/ha

Compound: CCN(C(=O)n1nnn(-c2ccccc2Cl)c1=O)C1CCCCC1 [(B1.15), fentrazamid]
- Herbicidal effect (in %) against SAGPY ([1]; 25 g of AS/ha): 0%
- Herbicidal effect (in %) against SAGPY ([1]; 50 g of AS/ha): 40%
- Herbicidal effect (in %) against SAGPY ([1]; 100 g of AS/ha): 80%
- Damage (in %) to rice ([2]; Table 5 greenhouse trial, post-emergence 1-2-leaf stage, 25 g of AS/ha): 0%
- Damage (in %) to rice ([2]; Table 5 greenhouse trial, post-emergence 1-2-leaf stage, 50 g of AS/ha): 0%
- Damage (in %) to rice ([2]; Table 5 greenhouse trial, post-emergence 1-2-leaf stage, 100 g of AS/ha): 0%

Compound: oxadiargyl [(B4.9)]
- Herbicidal effect (in %) against ECHCO ([3]; Table 3 field trial, scoring 28 days after application, 25 g of AS/ha): 33%
- Herbicidal effect (in %) against ECHCO ([3]; Table 3 field trial, scoring 28 days after application, 50 g of AS/ha): 43%
- Herbicidal effect (in %) against ECHCO ([3]; Table 3 field trial, scoring 28 days after application, 100 g of AS/ha): 48%

Compound: Cc1nn(-c2cc(CC(Cl)C(=O)O)c(Cl)cc2F)c(=O)n1C(F)F (stereo not drawn) [(B2.2), carfentrazone]
- Herbicidal effect (in %) against SEBEX [4, 13]: 93%
- Damage (in %) to rice [5, 13]: 13%

Compound: COc1cc(OC)nc(Oc2cccc(Oc3nc(OC)cc(OC)n3)c2C(=O)[O-])n1.[Na+] [(B4.6), bispyribac-Na]
- Herbicidal effect (%) against SEBEX [4, 14]: 93%
- Herbicidal effect (%) against AMARE [6, 14]: 93%
- Herbicidal effect (in %) against CYPDI [7]: 75%
- Herbicidal effect (in %) against IPOSS [8]: 91%

Compound: CCOC(=O)[C@@H](C)Oc1ccc(Oc2nc3ccc(Cl)cc3o2)cc1 [(A1.1), fenoxaprop-P-ethyl]
- Damage (in %) to rice ([5]; Table 2 field trial, post-emergence 2-4-leaf stage, scoring 21 days after application, 45 g of AS/ha): 0%
- Damage (in %) to rice ([5]; Table 3 field trial, post-emergence 2-4-leaf stage, scoring 28 days after application, 45 g of AS/ha): 21%
- Damage (in %) to rice ([5]; Table 4 field trial, post-emergence 2-4-leaf stage, scoring 28 days after application, 45 g of AS/ha): 21%
- Damage (in %) to rice ([5]; Table 12 field trial, post-emergence 3-leaf stage, scoring 12 days after application, 20 g of AS/ha): 0%
- Damage (in %) to rice ([5]; Table 12 field trial, post-emergence 3-leaf stage, scoring 12 days after application, 40 g of AS/ha): 0%
- Damage (in %) to rice ([5]; Table 12 field trial, post-emergence 3-leaf stage, scoring 12 days after application, 80 g of AS/ha): 5%
- Herbicidal effect (in %) against ECHCO ([3]; Table 2 field trial, scoring 21 days after application, 45 g of AS/ha): 51%
- Herbicidal effect (in %) against ECHCO ([3]; Table 3 field trial, scoring 28 days after application, 45 g of AS/ha): 83%
- Herbicidal effect (in %) against ELEIN ([9]; 45 g of AS/ha): 80%
- Herbicidal effect (in %) against SAGPY ([1]; 37.5 g of AS/ha): 0%
- Herbicidal effect (in %) against SAGPY ([1]; 75 g of AS/ha): 0%
- Damage (in %) to rice ([2]; Table 5 greenhouse trial, post-emergence 1-2-leaf stage, 37.5 g of AS/ha): 0%
- Damage (in %) to rice ([2]; Table 5 greenhouse trial, post-emergence 1-2-leaf stage, 75 g of AS/ha): 8%
- Damage (in %) to rice ([2]; Table 6 greenhouse trial, post-emergence 3-4-leaf stage, 18 g of AS/ha): 0%
- Damage (in %) to rice ([2]; Table 6 greenhouse trial, post-emergence 3-4-leaf stage, 37 g of AS/ha): 0%
- Damage (in %) to rice ([2]; Table 6 greenhouse trial, post-emergence 3-4-leaf stage, 75 g of AS/ha): 3%
- Herbicidal effect (in %) against ECHCG ([10]; 18 g of AS/ha): 15%
- Herbicidal effect (in %) against ECHCG ([10]; 37 g of AS/ha): 40%
- Herbicidal effect (in %) against ECHCG ([10]; 75 g of AS/ha): 82%
- Herbicidal effect (in %) against ECHCG ([11]; 20 g of AS/ha): 80%
- Herbicidal effect (in %) against ECHCG ([11]; 40 g of AS/ha): 95%
- Herbicidal effect (in %) against ECHCG ([11]; 80 g of AS/ha): 97%

Compound: CC1=C(c2ccccc2)C(=O)N(C(C)(C)c2cc(Cl)cc(Cl)c2)CO1 [(B4.26), oxaziclomefone]
- Damage (in %) to rice ([5]; Table 4 field trial, post-emergence 2-4-leaf stage, scoring 28 days after application, 30 g of AS/ha): 15%
- Damage (in %) to rice ([5]; Table 4 field trial, post-emergence 2-4-leaf stage, scoring 28 days after application, 60 g of AS/ha): 19%
- Herbicidal effect (in %) against ELEIN ([9]; 30 g of AS/ha): 0%
- Herbicidal effect (in %) against ELEIN ([9]; 60 g of AS/ha): 37%

Compound: O=C(O)COc1nc(Cl)c(Cl)cc1Cl [(B3.1), triclopyr]
- Herbicidal effect (in %) against AMARE [6, 15]: 66%
- Damage (in %) to rice [5, 15]: 18%

Compound: CC(C)Oc1cc(-n2nc(C(C)(C)C)oc2=O)c(Cl)cc1Cl [(B4.8), oxadiazon]
- Damage (in %) to rice ([5]; in vivo): 0%
- Herbicidal effect (in %) against CYPIR [12]: 75%
